According to ChEMBL document CHEMBL1150200, “Apotirucallane Triterpenes from Dysoxylum roseum” (1991):
≈ marks a conversion by molar mass, not a printed value.

System: KB
Test: Cytotoxicity against human KB cells
Type: functional
Settings: read-out: ED50 (the source's name)

Q: CC(C)=CC1C[C@@H]([C@@H]2CC=C3[C@]4(C)C(=O)C[C@@H]5[C@](C)(C=CC(=O)[C@]5(C)CO)[C@H]4CC[C@]32C)CO1 (stereo partly specified) [DYSORONE E] was tested. Which EC50 did it give?
A: 3.5 µg/mL (≈ 7.5 µM)
